Measurements from the supplement of paper PMC10307832.

Legend:
Assay in all cases: relative viability (nuclei count vs DMSO), 5 days (fraction); higher = more cells survive
AGI-6780 + Trametinib = compound: O=C(Nc1cccc(C(F)(F)F)c1)Nc1cc(S(=O)(=O)NC2CC2)ccc1-c1ccsc1 [AGI-6780] + CC(=O)Nc1cccc(-n2c(=O)n(C3CC3)c(=O)c3c(Nc4ccc(I)cc4F)n(C)c(=O)c(C)c32)c1 [Trametinib] (partner 0.02 µM)
In short: (§1)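 A single step with final 0.05% Triton X-100, 1% formaldehyde and 1 ug/ml Hoechst fixed the cells and stained nuclei 5 days after treatment. Lung cancer cell lines in 1536-well plates had been treated by pin tool the day after seeding with one drug alone or a fixed anchor-drug dose plus five library-drug doses (not always all listed) in √10 steps, and nuclei were counted on 4× images. Relative viability is the ratio of nuclei in treated wells to nuclei in vehicle wells, taken as the median of duplicate plates.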

AGI-6780 + Bortezomib = compound: O=C(Nc1cccc(C(F)(F)F)c1)Nc1cc(S(=O)(=O)NC2CC2)ccc1-c1ccsc1 [AGI-6780] + CC(C)C[C@H](NC(=O)[C@H](Cc1ccccc1)NC(=O)c1cnccn1)B(O)O [Bortezomib] (partner 0.002 µM)
In short: as §1

AGI-6780 + Pictilisib = compound: O=C(Nc1cccc(C(F)(F)F)c1)Nc1cc(S(=O)(=O)NC2CC2)ccc1-c1ccsc1 [AGI-6780] + CS(=O)(=O)N1CCN(Cc2cc3nc(-c4cccc5[nH]ncc45)nc(N4CCOCC4)c3s2)CC1 [Pictilisib] (partner 1 µM)
In short: as §1

AGI-6780 + Olaparib = compound: O=C(Nc1cccc(C(F)(F)F)c1)Nc1cc(S(=O)(=O)NC2CC2)ccc1-c1ccsc1 [AGI-6780] + O=C(c1cc(Cc2n[nH]c(=O)c3ccccc23)ccc1F)N1CCN(C(=O)C2CC2)CC1 [Olaparib] (partner 8 µM)
In short: as §1

Cell Line	relative viability (AGI-6780 + Trametinib; first compound 0.08 µM)	relative viability (AGI-6780 + Trametinib; first compound 0.253 µM)	relative viability (AGI-6780 + Trametinib; first compound 0.8 µM)	relative viability (AGI-6780 + Trametinib; first compound 2.53 µM)	relative viability (AGI-6780 + Trametinib; first compound 8 µM)	relative viability (AGI-6780 + Bortezomib; first compound 0.08 µM)	relative viability (AGI-6780 + Bortezomib; first compound 0.253 µM)	relative viability (AGI-6780 + Bortezomib; first compound 0.8 µM)	relative viability (AGI-6780 + Bortezomib; first compound 2.53 µM)	relative viability (AGI-6780 + Bortezomib; first compound 8 µM)	relative viability (AGI-6780 + Pictilisib; first compound 0.08 µM)	relative viability (AGI-6780 + Pictilisib; first compound 0.253 µM)	relative viability (AGI-6780 + Pictilisib; first compound 0.8 µM)	relative viability (AGI-6780 + Pictilisib; first compound 2.53 µM)	relative viability (AGI-6780 + Pictilisib; first compound 8 µM)	relative viability (AGI-6780 + Olaparib; first compound 0.08 µM)	relative viability (AGI-6780 + Olaparib; first compound 0.253 µM)	relative viability (AGI-6780 + Olaparib; first compound 0.8 µM)	relative viability (AGI-6780 + Olaparib; first compound 2.53 µM)	relative viability (AGI-6780 + Olaparib; first compound 8 µM)
LOU-NH91	0.826	0.777	0.765	0.751	0.824	0.475	0.597	0.472	0.605	0.512	0.524	0.529	0.554	0.505	0.525	0.942	0.887	0.94	0.912	0.89
LU99A	0.547	0.572	0.431	0.44	0.534	1.11	1.04	0.99	0.92	1.26	0.396	0.339	0.339	0.273	0.317	0.255	0.289	0.178	0.243	0.287
LXF-289	0.722	0.683	0.657	0.74	0.683	1.02	0.993	0.976	1.03	0.957	0.827	0.803	0.766	0.741	0.827	1.07	1.02	1.08	1.06	1.03
NCI-H23	0.394	0.39	0.375	0.272	0.494	1.08	1.2	1.02	0.86	1.19	0.614	0.571	0.624	0.437	0.609	0.302	0.271	0.288	0.354	0.349
NCI-H322M	–	0.525	0.525	0.547	0.499	1.08	1.15	1.35	1.27	1.39	0.518	0.572	0.526	0.585	0.524	–	0.773	0.744	0.747	0.874
NCI-H441	0.554	0.49	0.553	0.422	0.51	0.514	0.601	0.831	0.45	0.387	0.562	0.483	0.565	0.288	0.381	0.627	0.525	0.624	0.441	0.453
NCI-H460	0.286	0.149	0.117	0.1	0.167	1.18	1.09	1.21	1.08	1.05	0.325	0.338	0.382	0.242	0.374	0.413	0.444	0.487	0.291	0.447
NCI-H520	0.652	0.628	0.58	0.593	0.666	0.577	0.661	0.63	0.697	0.779	0.278	0.315	0.332	0.257	0.29	0.33	0.376	0.31	0.322	0.331
